Assays:
[1] = system: pro-inflammatory cytokine release, raw264.7 cells; experiment: Control cytokine release assay without LPS treatment; format: cell-based, mouse; conditions: raw264.7 cells without any LPS treatment
Description: (§1) The mouse inflammatory cytokines TNFα, MCP-1, IL-10 and IL-6 were quantified using a Cytometric Beads Array (CBA) detection kit (BD Biosciences, USA). This study was performed in triplicate.
This confirms that the developed nanoparticles are suitable for anti-inflammatory treatment as expected.

TNFα = experiment: Cytokine release from LPS-treated macrophages: TNFα; format: cell-based, mouse; conditions: RAW 264.7, LPS 0.1 μg/mL, 24 hours; 100 μg/ml DXP or same equivalent concentration (82 μg/ml dexamethasone phosphate)
Description: (§2) For the cytokine release experiment, the RAW 264.7 cells were seeded in 24-well plates at a cellular density of 4×10^4 cells/well in culture medium and they were left in the incubator for 48 hours to reach 80% confluency. Then, the medium was replaced by fresh medium alone or fresh medium with LPS at 0.1 μg/mL, and the plates were incubated another 3 hours. Afterwards, the “standard” nanoparticles produced by emulsification-solvent evaporation at three concentrations: 1, 10 and 100 μg/mL of DXP and free dexamethasone phosphate at 82 μg/ml, which correspond to 100 μg/ml DXP considering molecular weight ratio, were added to some wells. Culture medium alone was used as negative control and LPS 0.1 μg/mL as positive control.
(§3) After 24 hours of incubation with the treatments, the supernatants were collected and frozen at −20° C. until the analysis was performed. The cells were detached and counted.
as §1

[2] = Pharmacokinetics in plasma after intravenous injection; parameters: species or system mice; conditions: male, DBA/lOlaHsd, mouse, in vivo, 12 mg/kg
Description: Nanoparticles were prepared by emulsion-evaporation as described above and were diluted in PBS to obtain a final concentration of 2.5 mg/ml DXP, which corresponds to 1.55 mg/ml dexamethasone base. […] DXM. DBA/lOlaHsd male mice aged of 9 weeks (Envigo) were divided into two groups. One received the nanoparticle suspension and the other received the control, administration was carried out by intravenous injection in the tail vein at 12 mg/kg eq. DXM. For each group, 11 pharmacokinetic time points were performed with 7 mice per point, from 10 min to 48 hours. Blood sampling was achieved by terminal cardiac puncture using a 25G needle while mice were previously anesthetized with a lethal dose of pentobarbital. Immediately after, blood was centrifuged to recover plasma which was stored at −80° C. For every time point, 5 mice out of 7 underwent organs sampling after cardiac puncture. Liver, spleen, kidneys and lungs were removed and stored at −80° C.
To achieve quantification of DXM and DXP in plasma, an extraction process was developed. 100 μl of plasma samples were introduced into centrifugation tubes and 100 μl of the internal standart at 4 μg/ml in acetonitrile was added and vortexed during 30 seconds. 3 ml of a mixture chloroform/methanol: 9/1 (v/v) was added and tubes were vortexed vigorously 3 minutes. Centrifugation were performed at 3500 rpm, 30 min. Organic phase was recovered and evaporated using an evaporator under gas flow. Dried molecules were dissolved in 200 μl acetonitrile and this sample was analyzed by HPLC-UV. Calibration curves of DXP and DXM were linear, respectively in the range 0.5-100 μg/ml (R^2=0.9997, y=0.2199x−0.0165) and 0.1-100 μg/ml (R^2=0.9974, y=1.056x+0.1445). Regarding short time points (10 min, 20 min, 40 min), DXP and DXM concentrations were above the linearity range of the calibration curve. A second calibration curve for each molecule was set up, beginning with 50 μl plasma completed to 100 μl with milliQ water. Following stages were the same than previously described. Calibration curves “50 μl plasma” of DXP and DXM were linear, respectively in the range 50-800 μg/ml (R^2=0.9808, y=0.2229x−3.2128) and 20-400 μg/ml (R^2=0.9986, y=0.7178x−0.059). Internal standard was testosterone decanoate for DXP and dexamethasone acetate for DXM quantification.

IL-6 = experiment: Cytokine release from LPS-treated macrophages: IL-6; format: cell-based, mouse; conditions: RAW 264.7, LPS 0.1 μg/mL, 24 hours
Description: as §2, §3, §1

In the case of C[C@@H]1C[C@H]2[C@@H]3CCC4=CC(=O)C=C[C@]4(C)[C@@]3(F)[C@@H](O)C[C@]2(C)[C@@]1(O)C(=O)COP(=O)(O)O [DSP, dexamethasone sodium phosphate], the “induction of pro-inflammatory cytokine release” value [1] is reported as “neither DXP nanoparticles nor free drug induce pro-inflammatory cytokine release”, the TNFα release (TNFα) is reported as “no effect detected” and the AUC0→t [2] is reported as 18755 µg·min/mL. It also gave a C0 [2] of 22400 ng/mL, a Clearance [2] of 0.0046 mL/min and a Cmax [2] of 22100 ng/mL. It also gave an MRT [2] of 45 h, a Tmax [2] of 0.167 h and a Vd [2] of 12.50 mL. The “plateau of DXM in plasma” value [2] was “around 10 % of the injected dose”, the t1/2 [2] was 28.8 h and the IL-6 release (IL-6) was “No significant reduction”.

From patent publication US11642320B2, “Nanoparticulate prodrugs” (priority 2016, dated 2023)
